In experiment [1] the target is T1, transfected human CB1 receptor (Homo sapiens, UniProt P21554).
T1 construct: purchased Receptor Biology, Inc
Nature of the experiment: In-vitro determination of affinity to CB1/CB2 receptors, radioligand [3H]-CP55940. The following applies: binding to CB1/CB2 receptors as described, table does not name the subtype, text points to CB1. The procedure:
The in-vitro determination of the affinity of the inventive quaternary ammonium salts of substituted pyrazoline compounds to CB1/CB2-Rezeptors is carried out as described in the publication of Ruth A. Ross, Heather C. Brockie et al., “Agonist-inverse agonist characterization at CB1 and CB2 cannabinoid receptors of L-759633, L759656 and AM630”, British Journal of Pharmacology, 126, 665-672, (1999), whereby the transfected human CB1 and CB2 receptors of Receptor Biology, Inc. are used. The radioligand used for both receptors is [^3H]-CP55940. The respective parts of the description are hereby incorporated by reference and forms part of the present disclosure.
The affinity of the inventive substituted pyrazoline compounds to CB1/CB2 receptors was determined as described above.

In experiment [2] the target is T2, recombinant human cannabinoid 1 receptor (CB1), CHO cell membranes (Homo sapiens, UniProt P21554).
T2 construct: expressed in transfected cells; membranes prepared
Kind of experiment: [35S]GTPγS binding assay, antagonism against WIN 55,212-2. It counts as biochemical. The following applies: compound at 1 μM against WIN 55,212-2 dose response; 100% = effect of internal standard CB1-antagonist. On the procedure:
Chinese hamster ovary (CHO) cells stably expressing recombinant human cannabinoid 1 receptor (CB1) were cultured in nutrient mixture Ham's F 12 supplemented with 10% heat-inactivated fetal bovine serum, 2 mM L-glutamine, 50 U/ml penicillin, 50 U/ml streptomycin and 0.5 mg/ml geneticin. In order to obtain cells, culture flasks were washed twice with phosphate buffered saline and scraped. Then, cells were collected by centrifugation (200×g, 10 min) and stored dry at −80° C. Cells were homogenized in ice-cold 20 mM HEPES, 10 mM EDTA (pH 7.5) and centrifuged at 40,000×g for 15 min at 4° C. The pellet was resuspended in 20 mM HEPES, 0.1 mM EDTA (pH 7.5) and centrifuged for 15 min at 4° C. The final pellet was resuspended in 20 mM HEPES, 0.1 mM EDTA (pH 7.5), and divided in aliquots and stored at −80° C. until use.
The reaction was performed in 96-well plates. Membranes (15 µg protein/well) were incubated for 60 min at 30° C. in buffer (50 mM HEPES, 100 mM KCl, 5 mM MgCl2, 1 mM EDTA, 0.1% wt/vol bovine serum albumin, […], saponin (10 μg/ml), 0.5 nM [^35S]GTPγS, pH 7.4) with compound at 1 μM final concentration in either the absence or presence of dose response curve of agonist WIN 55, 212-2 between 3 nM and 3 μM. The incubation was terminated by rapid filtration through Millipore Multiscreen glass fiber FB, and rinsed two-times with ice-cold assay buffer. Filter plates were dried and 30 μl of scintillation liquid was added. Radioactivity was determined using Wallac Microbeta Trilux. Each experiment was performed at least in duplicate. A WIN 55, 212-2 dose-response was systematically performed.
The average of basal [^35S]GTPγS binding was subtracted from all binding data. In order to compare the antagonism results from one screening campaign to another one, the difference between the maximal agonist effect of WIN 55, 212-2 alone, and the maximal antagonism effect due to WIN 55, 212-2 with an internal standard CB1-antagonist was defined as 100%.
The determination of cannabinoid activity in-vivo was determined as described above.
In general terms: GTPγS resists hydrolysis and so accumulates on activated G proteins.

Experiment [3] is described as follows: In vivo testing for antiobesic activity, acute treatment. The following applies: rats, acute oral administration, HCl-salts; body weight difference vs control. The procedure: Normally handled rats were habituated to a reversed cycle 12/12 h, and the compound as well as saline was acutely orally administered. After administration the cumulated food intake (g) was measured at 6 h and 23 h. Following that the difference in body weight between control and compound treated animals was measured.

Broadly, the IC50 is the concentration that gives 50% inhibition. A low value points to inhibition by little substance.

T2 sequence (P21554 whole entry): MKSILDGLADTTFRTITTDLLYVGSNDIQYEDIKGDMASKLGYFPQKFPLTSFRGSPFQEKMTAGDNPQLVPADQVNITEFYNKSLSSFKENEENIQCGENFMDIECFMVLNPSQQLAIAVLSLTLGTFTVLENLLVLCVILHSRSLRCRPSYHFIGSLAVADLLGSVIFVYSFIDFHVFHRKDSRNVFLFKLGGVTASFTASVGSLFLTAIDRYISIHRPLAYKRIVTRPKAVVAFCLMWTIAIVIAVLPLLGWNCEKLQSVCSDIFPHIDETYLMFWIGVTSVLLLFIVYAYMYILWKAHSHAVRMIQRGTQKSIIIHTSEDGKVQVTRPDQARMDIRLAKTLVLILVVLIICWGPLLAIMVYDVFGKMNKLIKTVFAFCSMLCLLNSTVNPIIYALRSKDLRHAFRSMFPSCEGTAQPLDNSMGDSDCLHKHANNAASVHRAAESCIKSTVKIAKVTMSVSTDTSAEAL
T1 sequence (P21554 whole entry): as above

On to `C[C@H]1C(C(=O)NN2CCCCCC2)=NN(c2ccc(Cl)cc2Cl)[C@H]1c1ccc(Cl)cc1.Cl` (relative stereo) [Example 1, cis-N-(azepan-1-yl)-5-(4-chlorophenyl)-1-(2,4-dichlorophenyl)-4-methyl-4,5-dihydro-1H-pyrazole-3-carboxamide hydrochloride], for which the IC50 in experiment [1] was 0.0079 ± 0.0028 µM. In addition, the “Antagonism (%)” value in experiment [2] is reported as 99 ± 5%. For the same molecule, the “Antiobesic activity (reducing weight)” value in experiment [3] is given as “active in this model, reducing weight”.

On to `C[C@H]1C(C(=O)NN2CCCCCC2)=NN(c2ccc(Cl)cc2Cl)[C@H]1c1ccc(Br)cc1.Cl` (relative stereo) [Example 5, cis-N-(azepan-1-yl)-5-(4-bromophenyl)-1-(2,4-dichlorophenyl)-4-methyl-4,5-dihydro-1H-pyrazole-3-carboxamide hydrochloride], for which the half-maximal inhibitory concentration (IC50) in experiment [1] came out at 0.071 ± 0.002 µM. In addition, the “Antagonism (%)” value in experiment [2] was determined as 133 ± 5%. In addition, the “Antiobesic activity (reducing weight)” value in experiment [3] is recorded as “active in this model, reducing weight”.

For `C[C@H]1C(C(=O)NN2CCCCCC2)=NN(c2ccc(Cl)cc2Cl)[C@H]1c1ccc(F)cc1.Cl` (relative stereo) [7 (HCl), cis-N-(azepan-1-yl)-5-(4-fluorophenyl)-1-(2,4-dichlorophenyl)-4-methyl-4,5-dihydro-1H-pyrazole-3-carboxamide hydrochloride], the concentration for half-maximal inhibition (IC50) in experiment [1] is 0.122 µM. In addition, in experiment [2], the “Antagonism (%)” value worked out at 83 ± 6%.

`COc1ccc([C@H]2[C@@H](C)C(C(=O)NN3CCCCCC3)=NN2c2ccc(Cl)cc2Cl)cc1.Cl` (relative stereo) [Example 9, cis-N-(azepan-1-yl)-1-(2,4-dichlorophenyl)-5-(4-methoxyphenyl)-4-methyl-4,5-dihydro-1H-pyrazole-3-carboxamide hydrochloride] came in with an IC50 in experiment [1] of 0.061 µM. For the same molecule, the “Antagonism (%)” value in experiment [2] is given as 117 ± 5%. The “Antiobesic activity (reducing weight)” value in experiment [3] is “active in this model, reducing weight”.

For `C[C@H]1C(C(=O)NN2CCCCCC2)=NN(c2ccc(Cl)cc2Cl)[C@H]1c1ccc(F)cc1` [Example 7], the “Antagonism (%)” value in experiment [2] is reported as 52%.
